Key:
[1] = Antitumor activity against human LNCaP/AR cells xenografted in SCID male mouse assessed as tumor growth inhibition at 10 mg/kg, po administered once daily for 28 days and measured every 3 days; format: functional; settings: time 28 day
[2] = biological target: GABA-A receptor; anion channel; experiment: Antagonist activity at GABA-A (unknown origin); format: toxicity, Homo sapiens
[3] = Effect on androgen sensitive organs in testosterone propionate stimulated castrated male Sprague-Dawley rat assessed as seminal vesicles weight loss at 20 mg/kg, po administered once daily for 10 days and measured 24 hrs post last dose; format: functional; settings: time 11 day
[4] = Effect on androgen sensitive organs in testosterone propionate stimulated castrated male Sprague-Dawley rat assessed as ventral prostate weight loss at 20 mg/kg, po administered once daily for 10 days and measured 24 hrs post last dose; format: functional; settings: time 11 day
[5] = AUC(0 to t) in dog at 2 mg/kg, iv measured upto 24 hrs by LC-MS/MS analysis; format: ADME, organism-based, Canis lupus familiaris; settings: in vivo
[6] = Oral bioavailability in Sprague-Dawley rat at 10 mg/kg measured upto 24 hrs by LC-MS/MS analysis; format: ADME, organism-based; settings: in vivo
[7] = Clearance in Sprague-Dawley rat at 5 mg/kg, iv measured upto 24 hrs by LC-MS/MS analysis; format: ADME, organism-based; settings: in vivo
[8] = Cmax in dog at 10 mg/kg, po measured upto 24 hrs by LC-MS/MS analysis; format: ADME, organism-based, Canis lupus familiaris; parameters: dose 10 mg/kg, time < 24 hrs, route po; settings: in vivo
[9] = Cmax in Sprague-Dawley rat at 10 mg/kg, po measured upto 24 hrs by LC-MS/MS analysis; format: ADME, organism-based; parameters: dose 10 mg/kg, time < 24 hrs, route po; settings: in vivo
[10] = Clearance in dog at 2 mg/kg, iv measured upto 24 hrs by LC-MS/MS analysis; format: ADME, organism-based, Canis lupus familiaris; settings: in vivo
[11] = Volume of distribution at steady state in Sprague-Dawley rat at 5 mg/kg, iv measured upto 24 hrs by LC-MS/MS analysis; format: ADME, organism-based; settings: in vivo, read-out: Vdss
[12] = Tmax in Sprague-Dawley rat at 10 mg/kg, po measured upto 24 hrs by LC-MS/MS analysis; format: ADME, organism-based; settings: in vivo
[13] = Volume of distribution at steady state in dog at 2 mg/kg, iv measured upto 24 hrs by LC-MS/MS analysis; format: ADME, organism-based, Canis lupus familiaris; settings: in vivo, read-out: Vdss
[14] = Oral bioavailability in dog at 10 mg/kg measured upto 24 hrs by LC-MS/MS analysis; format: ADME, organism-based, Canis lupus familiaris; settings: in vivo
[15] = Half life in dog at 2 mg/kg, iv measured upto 24 hrs by LC-MS/MS analysis; format: ADME, organism-based, Canis lupus familiaris; settings: in vivo
[16] = Half life in Sprague-Dawley rat at 10 mg/kg, po measured upto 24 hrs by LC-MS/MS analysis; format: ADME, organism-based; settings: in vivo
[17] = AUC(0 to t) in dog at 10 mg/kg, po measured upto 24 hrs by LC-MS/MS analysis; format: ADME, organism-based, Canis lupus familiaris; settings: in vivo
[18] = AUC(0 to t) in Sprague-Dawley rat at 5 mg/kg, iv measured upto 24 hrs by LC-MS/MS analysis; format: ADME, organism-based; settings: in vivo
[19] = Tmax in dog at 10 mg/kg, po measured upto 24 hrs by LC-MS/MS analysis; format: ADME, organism-based, Canis lupus familiaris; settings: in vivo
[20] = Cmax in Sprague-Dawley rat at 5 mg/kg, iv measured upto 24 hrs by LC-MS/MS analysis; format: ADME, organism-based; parameters: dose 5 mg/kg, time < 24 hrs, route iv; settings: in vivo
[21] = AUC(0 to t) in Sprague-Dawley rat at 10 mg/kg, po measured upto 24 hrs by LC-MS/MS analysis; format: ADME, organism-based; settings: in vivo
[22] = Half life in dog at 10 mg/kg, po measured upto 24 hrs by LC-MS/MS analysis; format: ADME, organism-based, Canis lupus familiaris; settings: in vivo
[23] = Cmax in dog at 2 mg/kg, iv measured upto 24 hrs by LC-MS/MS analysis; format: ADME, organism-based, Canis lupus familiaris; parameters: time < 24 hrs, dose 2 mg/kg, route iv; settings: in vivo
[24] = Half life in Sprague-Dawley rat at 5 mg/kg, iv measured upto 24 hrs by LC-MS/MS analysis; format: ADME, organism-based; settings: in vivo

Structure (SMILES): CNC(=O)c1ccc(N2C(=S)N(c3ccc(C#N)c(C(F)(F)F)c3)C(=O)C2(C)C)cc1F [ENZALUTAMIDE]
- TGI [1]: 64%
- IC50 [2]: 4.8 µM
- Activity [3]: -67%
- Activity [4]: -67%

Structure (SMILES): Cc1cn(C2=CCC3C4CC=C5C[C@@H](NC(=O)c6ccc(F)cc6)CC[C@]5(C)C4CC[C@]23C)cn1.Cl (some centres undefined)
- AUCt [5]: 4737 h/ng/mL
- bioavailability [6]: 93%
- clearance [7]: 1.82 mL/min/kg
- Cmax [8]: 907 ng/mL
- Cmax [9]: 8800 ng/mL
- clearance [10]: 6.86 mL/min/kg
- Vd [11]: 0.77 L/kg
- Tmax [12]: 0.83 h
- Vd [13]: 1.92 L/kg
- bioavailability [14]: 44%
- half-life [15]: 5.15 h
- half-life [16]: 6.82 h
- AUCt [17]: 10460 h/ng/mL
- AUCt [18]: 45408 h/ng/mL
- Tmax [19]: 6 h
- Cmax [20]: 14300 ng/mL
- AUCt [21]: 84338 h/ng/mL
- half-life [22]: 12.4 h
- Cmax [23]: 1860 ng/mL
- half-life [24]: 6.39 h

From ChEMBL document CHEMBL5331145, “Discovery of a Novel Bifunctional Steroid Analog, YXG-158, as an Androgen Receptor Degrader and CYP17A1 Inhibitor for the Treatment of Enzalutamide-Resistant Prostate Cancer” (J Med Chem, 2023)
